Experimental findings from patent publication US20260356851A1, “TRICYCLIC COMPOUNDS AND USES THEREOF” (HUTCHMED LIMITED, priority 2023, published 2026) are described below.

Type in all cases: cell-based
For assay [1], the target named is T1, pERK1/2 (Thr202/Tyr204), PANC-1 (KRAS G121D) (Homo sapiens, UniProt P01116, G12D).
T1 construct: pERK1/2 HTRF read-out
Put plainly: Assay of intracellular pERK1/2 (Thr202/Tyr204) phosphorylation in PANC-1 cells (KRAS G12D). Conditions: pERK1/2, 2 days, read-out: PANC-1 (KRAS G12D) IC50. The procedure:
(§1) Example 2: Assay of intracellular pERK1/2 (Thr202/Tyr204)phosphorylation
(§2) 1. Reagents and materials: • pERK1/2 (Thr202/Tyr2O4) HIRE kit, Cisbio, Cat #64ERKPEH; • OptiPlate™-384-well plate, PerkinElmer, Cat #6007299; • 96-well plate, Coming, Cat #353072; • Instrument: EnVision2104, PerkinElmer; • Cell lines: NCI-1H358 (KRAS G12C), ATCC, CRL-5807; PANC-1 (KRAS G121D), ATCC, CRL-1469; NCI-1H441 (KRAS G12V), ATCC, HTB-174.
(§3) 2. Preparation of Reaction Solutions
(§4) • A test compound was dissolved in DMSO, diluted to 200.0 μM and further diluted 3-fold to prepare a series of test compounds at concentrations of 66.7, 22.2, 7.4, 2.5, 0.82, 0.27, 0.09 μM etc. Then 10 μL of the compound at different dilution concentrations was added to 190 μL of a DMEM medium to prepare a 10× test compound; • 1× cell lysis buffer: 4× cell lysis stock solution (provided by the kit) was diluted 4-fold with deionized water, and then 10% 100× blocking stock solution (provided by the kit) was added thereto. • pERK1/2 detection solution (prepared just before use): the pERK1/2 d2 antibody (provided by the kit) and pERK1/2 Cryptate antibody (provided by the kit) were diluted with the detection solution (provided by the kit) at a ratio of 1:1:38.
(§5) • Cells were inoculated into a 96-well plate (100 μL/well) at a density of 10000-12000/well. No cell was inoculated into a negative control well, and only the cell medium was added at 100 μL/well. The plate was placed in a cell incubator at 5% CO2 and 37° C. overnight. • 10 μL of the 10× test compound was added to the 100 μL cell culture 96-well plate; both the positive control well (that is, the control hole without chemical compound treatment) and the negative control well were charged with 10 μL of a 5% DMSO culture solution; and the plate was cultured in a cell incubator at 5% CO2 and 37° C. for 2 days. • The medium in the 96-well plate was removed; 50 μL of the 1× cell lysis buffer was added to each of the wells; the plate was placed in a microplate shaker; and lysis under shaking was carried out at 900 rpm at room temperature for 1 hour. • 16 μL of the lysis buffer in the 96-well plate was taken and transferred to a 384-well plate, followed by centrifugation at 1000 rpm for 30 s; then 4 μL of pERK1/2 detection solution was added to each well, followed by centrifugation at 1000 rpm for 30 s; and the 384-well plate was sealed with a sealing membrane and incubated at 25° C. on a low-speed shaker at 100 rpm in the dark for 2 hours. • The fluorescence value (RFU) of each well was detected on EnVision2104, with an emission wavelength 1 being 665 nm and an emission wavelength 2 being 615 nm.
(§6) Fluorescence ratio=fluorescence value665 nm/fluorescence value615 nm
(§7) Inhibition rate (%)=100−((fluorescence ratio of compound well−fluorescence ratio of negative control well)/(fluorescence ratio of positive control well−fluorescence ratio of negative control well))×100
(§8) wherein: • the fluorescence ratio of compound well refers to the fluorescence ratio of the well containing the test compounds; • the fluorescence ratio of negative control well refers to the fluorescence ratio of the cell-free control well; • the fluorescence ratio of positive control well refers to the fluorescence ratio of the cell well treated with 0.5% DMSO.
(§9) IC50 value: obtained by calculation using XL-Fit 5.0 software.

For assay [2], the target named is T2, pERK1/2 (Thr202/Tyr204), NCI-1H441 (KRAS G12V) (Homo sapiens, UniProt P01116, G12V).
T2 construct: pERK1/2 HTRF read-out
T2 sequence (P01116 1-188 isoform P01116-2 G12V): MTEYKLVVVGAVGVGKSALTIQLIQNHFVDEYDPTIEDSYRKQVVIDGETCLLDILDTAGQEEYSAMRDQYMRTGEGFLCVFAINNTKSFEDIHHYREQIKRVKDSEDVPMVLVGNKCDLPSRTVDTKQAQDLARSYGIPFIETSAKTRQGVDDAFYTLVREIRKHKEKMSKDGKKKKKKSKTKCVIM
Put plainly: Assay of intracellular pERK1/2 (Thr202/Tyr204) phosphorylation in NCI-H441 cells (KRAS G12V). The settings on record: pERK1/2, 2 days, read-out: NCI-H441 (KRAS G12V) IC50. The procedure: as §1, §2, §3, §4, §5, §6, §7, §8, §9

Assay [3] has as its target T3, pERK1/2 (Thr202/Tyr204), NCI-1H358 (KRAS G12C) (Homo sapiens, UniProt P01116, G12C).
T3 construct: pERK1/2 HTRF read-out
Put plainly: Assay of intracellular pERK1/2 (Thr202/Tyr204) phosphorylation in NCI-H358 cells (KRAS G12C). The settings on record: pERK1/2, 2 days, read-out: NCI-H358 (KRAS G12C) IC50. The method, then:
as §1, §2, §3, §4, §5, §6, §7, §8, §9

T3 sequence (P01116 1-188 isoform P01116-2 G12C): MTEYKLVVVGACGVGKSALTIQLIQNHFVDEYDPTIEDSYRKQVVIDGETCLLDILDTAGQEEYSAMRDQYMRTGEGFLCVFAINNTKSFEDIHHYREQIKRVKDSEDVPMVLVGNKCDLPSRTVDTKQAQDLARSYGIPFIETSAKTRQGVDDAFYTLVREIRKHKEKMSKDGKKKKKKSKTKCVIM
T1 sequence (P01116 1-188 isoform P01116-2 G12D): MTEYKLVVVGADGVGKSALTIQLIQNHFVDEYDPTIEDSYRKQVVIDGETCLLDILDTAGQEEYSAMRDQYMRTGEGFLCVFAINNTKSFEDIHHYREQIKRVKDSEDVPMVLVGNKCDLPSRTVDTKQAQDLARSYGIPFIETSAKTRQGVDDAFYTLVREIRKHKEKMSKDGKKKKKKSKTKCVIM

For `C[C@H](c1cccnc1N)N1CCOc2nc(-c3cc(O)cc(Cl)c3C3CC3)c(F)c3nc(OC[C@@H]4CCN4CC(F)F)nc1c23` (single isomer, unassigned) [Compound 20, 3-(10-((R or S)-1-(2-aminopyridin-3-yl)ethyl)-2-(((S)-1-(2,2-difluoroethyl)azetidin-2-yl)methoxy)-4-fluoro-9,10-dihydro-8H-7-oxa-1,3,6,10-tetraazacyclohepta[de]naphthalen-5-yl)-5-chloro-4-cyclopropylphenol], the IC50 in assay [1] is > 1000 nM; in assay [2] it was > 1000 nM; in assay [3], 783 nM.

Consider `CC(c1cccnc1N)N1CCOc2nc(-c3cc(O)cc(Cl)c3C3CC3)c(F)c3nc(OC[C@@H]4CCN4CC(F)F)nc1c23` (single isomer, unassigned) [Compound 21, 3-(10-((R or S)-1-(2-aminopyridin-3-yl)ethyl)-2-(((S)-1-(2,2-difluoroethyl)azetidin-2-yl)methoxy)-4-fluoro-9,10-dihydro-8H-7-oxa-1,3,6,10-tetraazacyclohepta[de]naphthalen-5-yl)-5-chloro-4-cyclopropylphenol], for which the IC50 in assay [1] amounted to 82 nM; in assay [2] it was 3 nM; in assay [3], 0.5 nM.

In the case of `CC(c1cccnc1N)N1CCOc2nc(-c3cc(O)cc(F)c3C3CC3)c(F)c3nc(OC[C@@H]4CCN4CC(F)F)nc1c23` (single isomer, unassigned) [Compound 23, 3-(10-((R or S)-1-(2-aminopyridin-3-yl)ethyl)-2-(((S)-1-(2,2-difluoroethyl)azetidin-2-yl)methoxy)-4-fluoro-9,10-dihydro-8H-7-oxa-1,3,6,10-tetraazacyclohepta[de]naphthalen-5-yl)-4-cyclopropyl-5-fluorophenol], the IC50 in assay [1], in assay [2] and in assay [3] was > 1000 nM each time.

Take `CC(c1cccnc1N)N1CCOc2nc(-c3cc(O)cc(F)c3C3CC3)c(F)c3nc(OC[C@@H]4CCN4CC(F)F)nc1c23` (single isomer, unassigned) [Compound 24, 3-(10-((R or S)-1-(2-aminopyridin-3-yl)ethyl)-2-(((S)-1-(2,2-difluoroethyl)azetidin-2-yl)methoxy)-4-fluoro-9,10-dihydro-8H-7-oxa-1,3,6,10-tetraazacyclohepta[de]naphthalen-5-yl)-4-cyclopropyl-5-fluorophenol]: the IC50 turned out to be 290 nM in assay [1], 11 nM in assay [2] and 3 nM in assay [3].

Consider `C[C@H](c1cccnc1N)N1CCOc2nc(-c3c(C(F)(F)F)ccc4[nH]ncc34)c(F)c3nc(OC[C@@]45CCCN4C[C@H](F)C5)nc1c23` (single isomer, unassigned) [Compound 26, 3-((1R or 1S)-1-(4-fluoro-2-(((2R,7aS)-2-fluorotetrahydro-1H-pyrrolizin-7a(5H)-yl)methoxy)-5-(5-(trifluoromethyl)-1H-indazol-4-yl)-8,9-dihydro-10H-7-oxa-1,3,6,10-tetraazacyclohepta[de]naphthalen-10-yl)ethyl)pyridin-2-amine], for which the IC50 in assay [1] is > 1000 nM; in assay [2], > 1000 nM; in assay [3] it was 886 nM.

On to `C[C@@H](c1cccnc1N)N1CCOc2nc(-c3c(C(F)(F)F)ccc4[nH]ncc34)c(F)c3nc(OC[C@@]45CCCN4C[C@H](F)C5)nc1c23` (single isomer, unassigned) [Compound 27, 3-((1R or 1S)-1-(4-fluoro-2-(((2R,7aS)-2-fluorotetrahydro-1H-pyrrolizin-7a(5H)-yl)methoxy)-5-(5-(trifluoromethyl)-1H-indazol-4-yl)-8,9-dihydro-10H-7-oxa-1,3,6,10-tetraazacyclohepta[de]naphthalen-10-yl)ethyl)pyridin-2-amine], for which the IC50 in assay [1] came to 106 nM; in assay [2], 11 nM; in assay [3], 2 nM.

Regarding `CC(c1cccnc1N)N1CCOc2nc(-c3cc(O)cc4ccc(F)c(F)c34)c(F)c3ncnc1c23` (single isomer, unassigned) [Compound 29, (R or S)-4-(10-(1-(2-aminopyridin-3-yl)ethyl)-4-fluoro-9,10-dihydro-8H-7-oxa-1,3,6,10-tetraazacyclohepta[de]naphthalen-5-yl)-5,6-difluoronaphthalen-2-ol], the 50% inhibitory concentration (IC50) in assay [1], in assay [2] and in assay [3] was > 1000 nM throughout.

`CC(c1cccnc1N)N1CCOc2nc(-c3cc(O)cc4ccc(F)c(F)c34)c(F)c3ncnc1c23` (single isomer, unassigned) [Compound 30, (R or S)-4-(10-(1-(2-aminopyridin-3-yl)ethyl)-4-fluoro-9,10-dihydro-8H-7-oxa-1,3,6,10-tetraazacyclohepta[de]naphthalen-5-yl)-5,6-difluoronaphthalen-2-ol]: the IC50 was > 1000 nM in assay [1], 64 nM in assay [2] and 31 nM in assay [3].

On to `CC(c1cccnc1N)N1CCOc2nc(-c3cc(O)cc(Cl)c3C3CC3)c(F)c3nc(OC[C@@H]4CCCN4C)nc1c23` (single isomer, unassigned) [Compound 31, 3-(10-((R or S)-1-(2-aminopyridin-3-yl)ethyl)-4-fluoro-2-(((S)-1-methylpyrrolidin-2-yl)methoxy)-9,10-dihydro-8H-7-oxa-1,3,6,10-tetraazacyclohepta[de]naphthalen-5-yl)-5-chloro-4-cyclopropylphenol], for which the IC50 in assay [1] is > 1000 nM; in assay [2], > 1000 nM; in assay [3], 405 nM.

Regarding `CC(c1cccnc1N)N1CCOc2nc(-c3cc(O)cc(Cl)c3C3CC3)c(F)c3nc(OC[C@@H]4CCCN4C)nc1c23` (single isomer, unassigned) [Compound 32, 3-(10-((R or S)-1-(2-aminopyridin-3-yl)ethyl)-4-fluoro-2-(((S)-1-methylpyrrolidin-2-yl)methoxy)-9,10-dihydro-8H-7-oxa-1,3,6,10-tetraazacyclohepta[de]naphthalen-5-yl)-5-chloro-4-cyclopropylphenol], the IC50 in assay [1] turned out to be 50 nM; in assay [2], 6 nM; in assay [3] it was 3 nM.

Take `Cc1cc(N)cc(-c2nc3c4c(nc(OC[C@@]56CCCN5C[C@H](F)C6)nc4c2F)N(C(C)c2cccnn2)CCO3)c1C(F)(F)F` (single isomer, unassigned) [Compound 128, 3-(4-fluoro-2-(((2R,7aS)-2-fluorotetrahydro-1H-pyrrolizin-7a(5H)-yl)methoxy)-10-((R or S)-1-(pyridazin-3-yl)ethyl)-9,10-dihydro-8H-7-oxa-1,3,6,10-tetraazacyclohepta[de]naphthalen-5-yl)-5-methyl-4-(trifluoromethyl)aniline]: the IC50 in assay [3] is > 100 nM.

As to `Cc1ccc(C(C)N2CCOc3nc(-c4cc(N)c(F)c(C)c4C(F)(F)F)c(F)c4nc(OC[C@@]56CCCN5C[C@H](F)C6)nc2c34)c(N)n1` (single isomer, unassigned) [Compound 252, 3-((R or S)-1-(5-(5-amino-4-fluoro-3-methyl-2-(trifluoromethyl)phenyl)-4-fluoro-2-(((2R,7aS)-2-fluorotetrahydro-1H-pyrrolizin-7a(5H)-yl)methoxy)-8,9-dihydro-10H-7-oxa-1,3,6,10-tetraazacyclohepta[de]naphthalen-10-yl)ethyl)-6-methylpyridin-2-amine], the IC50 in assay [3] was > 100 nM.

As a reminder, the IC50 is the concentration that gives 50% inhibition.
